Measurements from patent publication EP1795539B1, “Cell penetrating peptides for intracellular delivery of molecules” (Centre National de la Recherche Scientifique, priority 2005, dated 2007).
Where two headings read alike, the source gives them in different places. Peptide text beside a SMILES is read from it.

Assays:
different cell lines = assay type: cell-based; settings: 12 h
Method: • Figure 1 : Schematic representation of CADY cellular uptake mechanism. • Figure 2 : Structure of CADY in the interaction with the membrane. • (A) modelisation • (B) CD experiments - Far UV CD spectra were recorded on a JASCO J-810 spectro-polarimeter (JASCO Corporation, Tokyo, Japan) using a quartz cuvette with a path length of 1 mm. Spectra were corrected from the baseline buffer spectrum and smoothed with the JASCO software. Peptides were dissolved to a fixed concentration of 50 µM in water or in PBS. CD spectra were collected at 23°C and each spectrum represents the average of 4 scans. […] Binding of cargoes to CADY was monitored by steady state fluorescence spectroscopy. The intrinsic fluorescence associated to the Trp residues of CADY was used as sensitive probe. The fluorescence of CADY is centered at 340 nm upon excitation at 290 nm. […] The knockdown of the GAPDH at the protein level was quantified 48 hrs after transfection by Western blot analysis using polyclonal antibody (Ref. ABCAM GAPDH antibody - ab9385 rabbit polyclonal). […] The size of the particle was determined by light scattering and the knock down of GAPDH protein was quantified by Western blot analysis. • (B) role of the endosomal pathway on the efficiency of CADY-mediated siRNA delivery. […]

HS-68 and Hela cells = test: Toxicity of CADY variants, MTT cell viability assay (Table 1); assay type: cell-based
Method: The toxicity of CADY peptides has been investigated on different cell lines. Cells were incubated in the presence of increasing concentrations of CADY (from 0.1 µM to 1 mM) for 12 hrs and cell viability was estimated using MTT assay.

[1] = system: 5PC3 or Human H1299 adenocarcinoma cells; test: Intravenous injection of carrier/anti-cyclin B1 siRNA complexes, tumor growth; assay type: in vivo, NCR nude mice; settings: one intravenous injection, siRNA 10 µg, ratio 1:20

EC50 (different cell lines) [µM] | Compound | EC50 (HS-68 and Hela cells; free peptide, MTT, read-out: free EC50) [µM] | EC50 (HS-68 and Hela cells; 12 h) [µM] | tumor growth [1]
500 | CC(=O)NCC(=O)N[C@@H](CC(C)C)C(=O)N[C@@H](Cc1c[nH]c2ccccc12)C(=O)N[C@@H](CCCNC(=N)N)C(=O)N[C@@H](C)C(=O)N[C@@H](CC(C)C)C(=O)N[C@@H](Cc1c[nH]c2ccccc12)C(=O)N[C@@H](CCCNC(=N)N)C(=O)N[C@@H](CC(C)C)C(=O)N[C@@H](CC(C)C)C(=O)N[C@@H](CCCNC(=N)N)C(=O)N[C@@H](CO)C(=O)N[C@@H](CC(C)C)C(=O)N[C@@H](Cc1c[nH]c2ccccc12)C(=O)N[C@@H](CCCNC(=N)N)C(=O)N[C@@H](CC(C)C)C(=O)N[C@@H](CC(C)C)C(=O)N[C@@H](Cc1c[nH]c2ccccc12)C(=O)N[C@@H](CCCCN)C(=O)N[C@@H](C)C(=O)NCCS [CADY-1] (HELM PEPTIDE1{[ac].G.L.W.R.A.L.W.R.L.L.R.S.L.W.R.L.L.W.K.A.[SCCN[*:1]]}$$$$V2.0) | 400 |  | 
 | CC(C)CCC[C@@H](C)[C@H]1CC[C@H]2[C@@H]3CC=C4C[C@@H](OC(=O)NCC(=O)N[C@@H](CC(C)C)C(=O)N[C@@H](Cc5c[nH]c6ccccc56)C(=O)N[C@@H](CCCNC(=N)N)C(=O)N[C@@H](C)C(=O)N[C@@H](CC(C)C)C(=O)N[C@@H](Cc5c[nH]c6ccccc56)C(=O)N[C@@H](CCCNC(=N)N)C(=O)N[C@@H](CC(C)C)C(=O)N[C@@H](CC(C)C)C(=O)N[C@@H](CCCNC(=N)N)C(=O)N[C@@H](CO)C(=O)N[C@@H](CC(C)C)C(=O)N[C@@H](Cc5c[nH]c6ccccc56)C(=O)N[C@@H](CCCNC(=N)N)C(=O)N[C@@H](CC(C)C)C(=O)N[C@@H](CC(C)C)C(=O)N[C@@H](Cc5c[nH]c6ccccc56)C(=O)N[C@@H](CCCCN)C(=O)N[C@@H](C)C(=O)NCCS)CC[C@]4(C)[C@H]3CC[C@]12C [CADY-S] (HELM PEPTIDE1{[CC(C)CCC[C@@H](C)[C@H]1CC[C@H]2[C@@H]3CC=C4C[C@@H](OC(=O)[*:2])CC[C@]4(C)[C@H]3CC[C@]12C].G.L.W.R.A.L.W.R.L.L.R.S.L.W.R.L.L.W.K.A.[SCCN[*:1]]}$$$$V2.0; N-terminus assumed) |  | 200 | fully abolish the tumor growth
